Experimental data from ChEMBL document CHEMBL1146821, “Pyridazines. Part 36: Synthesis and antiplatelet activity of 5-substituted-6-phenyl-3(2H)-pyridazinones” (Bioorg Med Chem Lett, 2004).
pIC50: −log10 of the molar value.

Species: Homo sapiens
Assay: The antiplatelet activity by the turbidimetric method in washed human platelets using thrombin as agonist; Promotes platelet aggregation.
Assay type: functional; call rule not given here

SMILES	IC50
Oc1cc(Oc2ccccc2)c(-c2ccccc2)nn1	Promotes platelet aggregation

Species: Homo sapiens
Assay: The antiplatelet activity was tested by the turbidimetric method in washed human platelets using thrombin as agonist.
Assay type: functional

pIC50	SMILES
4.82	Oc1cc(Sc2ccccc2)c(-c2ccccc2)nn1
4.60	O=C(/C=C/c1cc(=O)[nH]nc1-c1ccccc1)c1ccccc1
< 3.00	COCCOC(=O)/C=C/c1cc(O)nnc1-c1ccccc1
< 3.00	N#C/C=C/c1cc(=O)[nH]nc1-c1ccccc1
< 3.00	OCC#Cc1cc(O)nnc1-c1ccccc1
3.30	C#Cc1cc(O)nnc1-c1ccccc1
< 3.00	CCOC(C#Cc1cc(O)nnc1-c1ccccc1)OCC
3.30	O=C1C(CC[S+]([O-])c2ccccc2)C(=O)N(c2ccccc2)N1c1ccccc1 (stereo unspecified) [SULFINPYRAZONE]

The next lines start with the compound.

SMILES	pIC50
COC(=O)C(=Cc1cc(=O)[nH]nc1-c1ccccc1)C(=O)OC	4.35
OCCCC#Cc1cc(O)nnc1-c1ccccc1	< 3.00
CCOC(=O)C(=Cc1cc(=O)[nH]nc1-c1ccccc1)C(=O)OCC	4.70
OCCC#Cc1cc(O)nnc1-c1ccccc1	< 2.70
Cc1ccc(-c2cc(O)nnc2-c2ccccc2)cc1	3.82
Oc1cc(-c2ccco2)c(-c2ccccc2)nn1	3.20
COC(=O)/C=C/c1cc(O)nnc1-c1ccccc1	< 3.00

Species: Homo sapiens
Assay: The antiplatelet activity by the turbidimetric method in washed human platelets using thrombin as agonist; NA is inactive
Assay type: functional

SMILES	IC50
O=c1cc(/C=C/c2ccccc2)c(-c2ccccc2)n[nH]1	Not Active
CCOC(=O)/C=C/c1cc(=O)[nH]nc1-c1ccccc1	Not Active

Species: Homo sapiens
Assay: The antiplatelet activity by the turbidimetric method in washed human platelets using thrombin as agonist; Precipitates under the conditions of the study.
Assay type: functional

SMILES	IC50
O=Cc1ccc(-c2cc(O)nnc2-c2ccccc2)cc1	Precipitates under the conditions of the study
Oc1cc(-c2ccc(Cl)cc2)c(-c2ccccc2)nn1	Precipitates under the conditions of the study
Oc1cc(-c2ccccc2)c(-c2ccccc2)nn1	Precipitates under the conditions of the study
